The text below walks through data of patent publication US20230044787A1, “TRICYCLE DIHYDROIMIDAZOPYRIMIDONE DERIVATIVE, PREPARATION METHOD THEREOF, PHARMACEUTICAL COMPOSITION AND USE THEREOF” (priority 2019, published 2023).

One may read the IC50 as the concentration needed to halve the response being measured.

This assay deals with T1, Lp-PLA2 (Homo sapiens, UniProt Q13093).
T1 construct: aliquoted and thawed 40 μL of pooled human plasma was previously added; from tissue; host or cells: pooled human plasma
T1 sequence (Q13093 22-441): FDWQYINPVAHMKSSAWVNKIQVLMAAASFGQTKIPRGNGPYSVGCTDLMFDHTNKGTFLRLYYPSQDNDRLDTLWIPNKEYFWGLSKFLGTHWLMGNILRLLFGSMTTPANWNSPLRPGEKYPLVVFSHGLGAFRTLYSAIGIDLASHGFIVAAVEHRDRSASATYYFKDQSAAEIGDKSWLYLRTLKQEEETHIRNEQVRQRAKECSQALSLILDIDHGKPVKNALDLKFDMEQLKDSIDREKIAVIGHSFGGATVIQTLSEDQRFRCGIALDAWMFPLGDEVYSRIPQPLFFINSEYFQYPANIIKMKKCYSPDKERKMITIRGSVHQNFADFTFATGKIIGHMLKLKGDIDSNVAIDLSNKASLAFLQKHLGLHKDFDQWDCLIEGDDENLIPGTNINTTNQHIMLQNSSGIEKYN
The experiment in a line: Lipoprotein-associated phospholipase A2 (Lp-PLA2) human plasma assay (Thio-PAF assay). To be noted: Lp-PLA2 human plasma assay (Thio-PAF), pooled human plasma, 30-min pre-incubation at room temperature. In kind it is biochemical.
Regarding `O=c1nc(OCc2cc(F)c(Oc3cnc(C(F)(F)F)nc3)c(F)c2)cc2n1CC13CCC(CC1)N23` [Example 47, 3-((3,5-difluoro-4-((2-(trifluoromethyl)pyrimidin-5-yl)oxy)benzyl)oxy)-7,8-dihydro-1H,6H,9H-6,8a-ethanopyrrolo[1′,2′:3,4] imidazo[1,2-c]pyrimidin-1-one], the concentration for half-maximal inhibition (IC50) came to 9.4 nM.

With `CC12CCCCN1c1cc(OCc3cc(F)c(Oc4cnc(C(F)(F)F)nc4)c(F)c3)nc(=O)n1C2` (stereo not drawn) [Example 67, 3-((3,5-difluoro-4-((2-(trifluoromethyl)pyrimidin-5-yl)oxy)benzyl)oxy)-9a-methyl-6,7,8,9,9a,10-hexahydro-1H-pyrido[1′,2′:3,4]imidazo [1,2-c]pyrimidin-1-one], the concentration for half-maximal inhibition (IC50) is 8.7 nM. Under `O=c1nc(OCc2ccc(F)c(F)c2)cc2n1CC13CC(CN21)C3` [Example 97, 3-((3,4-difluorobenzyl)oxy)-7,8-dihydro-1H,6H,9H-7,8a-methanopyrrolo[1′,2′:3,4] imidazo[1,2-c]pyrimidin-1-one] stands 14.2 nM. Regarding `O=c1nc(OCc2ccc(Oc3ccnc(C(F)(F)F)c3)c(F)c2)cc2n1CC13CC(CN4CCOCC4)(CN21)C3` [Example 166, 3-((3-fluoro-4-((2-(trifluoromethyl)pyridin-4-yl)oxy)benzyl)oxy)-7-(morpholinomethyl)-7,8-dihydro-1H,6H,9H-7,8a-methanopyrrolo[1′,2′:3,4] imidazo[1,2-c]pyrimidin-1-one], the concentration for half-maximal inhibition (IC50) turned out to be 5.8 nM. The value for `O=c1nc(OCc2ccc(Oc3ccc(F)c(C(F)(F)F)c3)nc2)cc2n1CC13CCC(CC1)N23` [Example 49, 3-((6-(4-fluoro-3-(trifluoromethyl)phenoxy)pyridin-3-yl)methoxy)-7,8-dihydro-1H,6H,9H-6,8a-ethanopyrrolo[1′,2′:3,4] imidazo[1,2-c]pyrimidin-1-one] was 168 nM; that for `N#Cc1cc(COc2cc3n(c(=O)n2)CC24CCC(CC2)N34)ccc1Oc1ccnc(C(F)(F)F)c1` [Example 51] was 3.3 nM; that for `O=c1nc(OCc2ccc(Oc3cncc(C(F)(F)F)c3)c(F)c2)cc2n1CC13CC(CN21)C3` [Example 148, 3-((3-fluoro-4-((5-(trifluoromethyl)pyridin-3-yl)oxy)benzyl)oxy)-7,8-dihydro-1H,6H,9H-7,8a-methanopyrrolo[1′,2′:3,4] imidazo[1,2-c]pyrimidin-1-one] was 4.3 nM. Take `N#Cc1cc(COc2cc3n(c(=O)n2)C[C@@]24CO[C@@H](CN32)C4)ccc1Oc1ccnc(C(F)(F)F)c1` [Example 110, 5-((((3R,11aS)-9-oxo-3,4-dihydro-1H,9H,11H-3,11a-methanopyrimido[6′,1′:2,3]imidazo[5,1-c][1,4]oxazin-7-yl)oxy)methyl)-2-((2-(trifluoromethyl)pyridin-4-yl)oxy)benzonitrile]: the concentration for half-maximal inhibition (IC50) worked out at 5.3 nM.

Consider `O=C1N(CC23CC(C2)C3)[C@@H]2CN3c4cc(OCc5ccc(Oc6ccnc(C(F)(F)F)c6)c(F)c5)nc(=O)n4C[C@]13C2` [Example 198, (3S,11aR)-2-(bicyclo[1.1.1]pent-1-ylmethyl)-7-((3-fluoro-4-((2-(trifluoromethyl)pyridin-4-yl)oxy)benzyl)oxy)-3,4-dihydro-9H,11H-3,11a-methanopyrazino[1′,2′:3,4]imidazo [1,2-c]pyrimidin-1,9(2H)-dione], for which the IC50 came out at 5.1 nM. Take `Cn1cc(Oc2c(F)cc(COc3cc4n(c(=O)n3)CC35CC(CN43)C5)cc2F)cn1` [Example 94, 3-((3,5-difluoro-4-((1-methyl-1H-pyrazol-4-yl)oxy)benzyl)oxy)-7,8-dihydro-1H,6H,9H-7,8a-methanopyrrolo[1′,2′:3,4] imidazo[1,2-c]pyrimidin-1-one]: the 50% inhibitory concentration (IC50) stood at 92.7 nM. In the case of `CC12COCCN1c1cc(OCc3ccc(Oc4cccc(C(F)(F)F)c4)c(C#N)c3)nc(=O)n1C2` (stereo not drawn) [Example 85], the IC50 stood at 6.7 nM.

Turning to `O=c1nc(OCc2cc(F)c(Oc3ccc(Cl)c(C(F)(F)F)c3)c(F)c2)cc2n1C[C@]13CO[C@H](CN21)C3` [Example 4, (3S,11aR)-7-((4-(4-chloro-3-(trifluoromethyl)phenoxy)-3,5-difluorobenzyl)oxy)-3,4-dihydro-1H,9H,11H-3,11a-methanopyrimido[6′-,1′:2,3] imidazo[5,1-c][1,4]oxazin-9-one], the IC50 amounted to 2.5 nM. Under `O=c1nc(OCc2ccc(Oc3cccc(C(F)(F)F)c3)c(F)c2)cc2n1C[C@]13CO[C@H](CN21)C3` [Example 192] stands 6.3 nM. Under `O=c1nc(OCc2cc(F)c(Oc3cccc(F)c3)c(F)c2)cc2n1C[C@]13CO[C@H](CN21)C3` [Example 137] stands 5.8 nM; under `O=c1nc(OCc2ccc(Oc3ccc(F)c(C(F)(F)F)c3)nc2)cc2n1C[C@]13CO[C@H](CN21)C3` [Example 17, (3S,11aR)-7-((6-(4-fluoro-3-(trifluoromethyl)phenoxy)pyridin-3-yl)methoxy)-3,4-dihydro-1H,9H,11H-3,11a-methanopyrimido[6′,1′:2,3] imidazo[5,1-c][1,4]oxazin-9-one], 32.4 nM; under `CCC12CCCCN1c1cc(OCc3cc(F)c(Oc4ccnc(C(F)(F)F)c4)c(F)c3)nc(=O)n1C2` (stereo not drawn) [Example 75, 3-((3,5-difluoro-4-((2-(trifluoromethyl)pyridin-4-yl)oxy)benzyl)oxy)-9a-ethyl-6,7,8,9,9a,10-hexahydro-1H-pyrido[1′,2′:3,4]imidazo [1,2-c]pyrimidin-1-one], 23.4 nM. The value for `N#Cc1cc(COc2cc3n(c(=O)n2)CC24CC(CN32)C4)ccc1F` [Example 103] was 6.2 nM; that for `CC12CCCN1c1cc(OCc3ccc(Oc4cccc(C(F)(F)F)c4)c(C#N)c3)nc(=O)n1C2` (stereo not drawn) [Example 59, 5-(((8a-methyl-1-oxo-7,8,8a,9-tetrahydro-1H,6H-pyrrolo[1′,2′:3,4]imidazo [1,2-c]pyrimidin-3-yl)oxy)methyl)-2-(3-(trifluoromethyl)phenoxy) benzonitrile] was 2.4 nM; that for `N#Cc1cc(COc2cc3n(c(=O)n2)C[C@@]24CO[C@@H](CN32)C4)ccc1Oc1cccc(C(F)(F)F)c1` [Example 33] was 6 nM. For the compound `N#Cc1cc(COc2cc3n(c(=O)n2)CC24CC(CN32)C4)ccc1Oc1cccc(C(F)(F)F)c1` [Example 42], the 50% inhibitory concentration (IC50) turned out to be 4.9 nM.

As for `O=c1nc(OCc2ccc(Oc3ccc(Cl)c(C(F)(F)F)c3)c(F)c2)cc2n1CC13CCC(CC1)N23` [Example 127, 3-((3-fluoro-4-(4-chloro-3-(trifluoromethyl)phenoxy)benzyl)oxy)-7,8-dihydro-1H,6H,9H-6,8a-ethanopyrrolo[1′,2′:3,4] imidazo[1,2-c]pyrimidin-1-one], the IC50 came to 2.6 nM.

As to `N#Cc1cc(F)cc(COc2cc3n(c(=O)n2)CC24CC(F)(CN32)C4)c1` [Example 159], the concentration for half-maximal inhibition (IC50) was 128 nM. Under `N#Cc1cc(COc2cc3n(c(=O)n2)C[C@]24CO[C@H](CN32)C4)ccc1Oc1ccc(C(F)(F)F)cc1` [Example 21] stands 6.4 nM; under `N#Cc1cc(COc2cc3n(c(=O)n2)C[C@]24CO[C@H](CN32)C4)ccc1Oc1cccc(C(F)(F)F)c1` [Example 19, 5-((((3S,11aR)-9-oxo-3,4-dihydro-1H,9H,11H-3,11a-methanopyrimido[6′,1′:2,3]imidazo[5,1-c][1,4]oxazin-7-yl)oxy)methyl)-2-(3-(trifluoromethyl)phenoxy) benzonitrile], 3.9 nM.
